In patent publication US20220389500A1, “PURIFYING AND POLYMERIZING 3'-BLOCKED NUCLEOTIDES” (ILLUMINA, INC., priority 2021, published 2022):

Assays:
Format in all cases: biochemical
3′-OH nucleotides [1] = experiment: Purification (polishing) of heated 3′-blocked nucleotides with Klenow polymerase and different templates, then 2×151 cycle sequencing on MINISEQ (FIG. 8); conditions: Klenow polymerase, 30 minutes at 37° C., nucleotides heated 5 hours at 55° C.
Experimental: FIG. 8 is a plot of phasing and prephasing during polymerization of 3′-blocked nucleotides that were purified using different conditions. More specifically, an aqueous solution of 3′-blocked nucleotides blocked with azidomethyl groups was heated for 5 hours at 55° C. so as to simulate nucleotide stress conditions and convert a portion of the 3′-blocked nucleotides to 3′-OH nucleotides. The resulting aqueous mixture of 3′-blocked nucleotides and 3′-OH nucleotides was purified for 30 minutes at 37° C. in a manner such as described with reference to FIGS. 1A-1B and 3, using the Klenow polymerase and different conditions, e.g., different templates, and different concentrations of templates, such as described further below. The purified 3′-blocked nucleotides then were used in a sequencing reaction, using 2×151 cycle runs on the MINISEQ® sequencing-by-synthesis instrument (Ilumina, Inc., San Diego Calif.) using the PhiX library as templates. The purified nucleotides behaved similarly in the two sequencing reads (R1 and R2). The accumulated prephasing over 150 cycles of read 1 (R1 C150% prephasing weight) and the accumulated phasing over 150 cycles of read 1 (R1 C150% phasing weight) after 3′-blocked nucleotide polymerization was measured for the purified 3′-blocked nucleotides, as well as for heated and unpurified 3′-blocked nucleotides and for unheated 3′-blocked nucleotides.
The effect of concentration of a first example template was determined. More specifically, the next data points to the right (“50 nM”) correspond to polymerization of 3′-blocked nucleotides that had been heated as indicated above and were purified using 50 nM of a 20N template of sequence 5′-NNNNNNNNNNNNNNNNNNNNCGGCCATATAACTGGTAGCTT-3′ (SEQ ID NO: 5), whereN are degenerated bases, combined in equimolar amount with a primer oligonucleotide sequence AAGCTACCAGTTATATGGCCG (SEQ ID NO: 6). […] From a comparison of the data points corresponding to different concentrations of the 20N template, it may be understood that with increased concentration of 20N template, prephasing approached a similar prephasing as for the unheated (“std”) 3′-blocked nucleotides.
Different templates were used to determine their effect on phasing and prephasing. More specifically, the next data points to the right (“4N”) correspond to polymerization of 3′-blocked nucleotides that had been heated as indicated above and were purified using 200 nM of a 4N template of sequence 5′-NNN NCGGC CAT ATA ACT GGT AGCTT-3′ (SEQ ID NO: 7) where N are degenerated bases, combined in equimolar amount with primer oligonucleotide sequence AAGCTACCAGTTATATGGCCG (SEQ ID NO: 6). […] The next data points to the right (“6N”) correspond to polymerization of 3′-blocked nucleotides that had been heated as indicated above and were purified using 200 nM of a 6N template of sequence 5′-[…]-3′ (SEQ ID NO: 8), combined in equimolar amount with primer oligonucleotide sequence AAGCTACCAGTTATATGGCCG (SEQ ID NO: 6).
The next data points to the right correspond to polymerization of 3′-blocked nucleotides that had been heated as indicated above and were purified using 200 nM of a mixture of 4 hairpin templates, each template corresponding to one base, of respective sequences GGGGGGGGGGGGCGGCCATATAACTGGTCACTCCAGTTATATGGCCG (hairpin G) (SEQ ID NO: 9), TTTTTTTTTTTTCGGCCATAT AACTGG TCACTCCAGTTATATGGCCG (hairpin T) (SEQ ID NO: 10), CCCCCCCCCCCCCGGCCATAT AACTGG TCACTCCAGTTATATGGCCG (hairpin C) (SEQ ID NO: 11), AAAAAAAAAAAACGGCCATATAACTGGTCACTCCAGTTATATGGCCG (hairpin A) (SEQ ID NO: 12). The hairpin templates were added to the reaction at the same concentration to reach a final concentration of 200 nM of DNA. […]

3′-OH nucleotides [2] = experiment: Purification with Taq polymerase at different temperatures and nucleotide concentrations, then 2×26 cycle sequencing on MISEQ (FIG. 11); conditions: 30 minutes, 0.5 mM or 1 mM nucleotides, control about 0.1%
Experimental: FIG. 11 is a plot of prephasing during polymerization of 3′-blocked nucleotides that were purified to remove 3′-OH nucleotides using different temperatures and concentrations of 3′-blocked nucleotides. Similarly as for Example 1, an aqueous solution of 3′-blocked nucleotides blocked with azidomethyl groups was heated for 5 hours at 55° C. so as to convert a portion of the 3′-blocked nucleotides to 3′-OH nucleotides. The resulting aqueous mixture of 3′-blocked nucleotides and 3′-OH nucleotides was purified for 30 minutes in a manner such as described with reference to FIGS. 1A-1B and 3, using 10× of an hp oligomer template with 20 degenerated bases (NNNNNNNNNNNNNNNNNNNN CGGCCATATAACTGGTAGCTTTTTTAAGCTACC AGTT AT ATG GCC G (SEQ ID NO. 1)), 10× of the Taq polymerase and either 0.5 mM or 1 mM of the heated 3′-blocked nucleotides, at a variety of temperatures. The purified 3′-blocked nucleotides then were polymerized using 2×26 cycle runs on the MISEQ® sequencing-by-synthesis instrument (Illumina, Inc., San Diego Calif.) using the PhiX library as templates. The normalized prephasing was measured for the purified 3′-blocked nucleotides, as well as for heated and unpurified Y-blocked nucleotides and for unheated Y-blocked nucleotides. […]

3′-OH nucleotides [3] = experiment: Purification of heated 3′-blocked nucleotides with different polymerases and temperatures, then 2×26 cycle sequencing on MINISEQ (FIG. 9); conditions: 30 minutes, hp template with 20 degenerated bases, nucleotides heated 5 hours at 55° C.
Experimental: FIG. 9 is a plot of phasing and prephasing during polymerization of 3′-blocked nucleotides that were purified to remove 3′-OH nucleotides using different polymerases and different temperatures. More specifically, similarly as for Example 1, an aqueous solution of 3′-blocked nucleotides blocked with azidomethyl groups was heated for 5 hours at 55° C. so as to convert a portion of the 3′-blocked nucleotides to 3′-OH nucleotides. The resulting aqueous mixture of 3′-blocked nucleotides and 3′-OH nucleotides was purified for 30 minutes in a manner such as described with reference to FIGS. 1A-1B and 3, using an hp oligomer template with 20 degenerated bases (meaning that at each position, one of the four bases could be incorporated; since this is random, each oligomer should have a different sequence) and different polymerases and different temperatures such as described further below. The purified 3′-blocked nucleotides then were polymerized using 2×26 cycle runs on the MINISEQ® sequencing-by-synthesis instrument (Illumina, Inc., San Diego Calif.) using the PhiX library as templates. The slope adjusted prephasing and phasing were measured for the purified 3′-blocked nucleotides, as well as for heated and unpurified 3′-blocked nucleotides and for unheated 3′-blocked nucleotides.
Different polymerases were used at different temperatures to determine their effect on phasing and prephasing. More specifically, the next data points to the right (“Vent polishing 60 C”) correspond to polymerization of 3′-blocked nucleotides that had been heated as indicated above and were purified using the Deep Vent polymerase at 60° C. […] From a comparison of performance of the different polymerases, it may be understood that using the Deep Vent polymerase at 60° C. provided similar phasing and prephasing as for the lower baseline “no stress” in which the 3′-blocked nucleotides were not heated. Additionally, it may be understood that using the Taq polymerase at the experimental temperatures provided even less prephasing than for the lower baseline “no stress” in which the 3′-blocked nucleotides were not heated. Accordingly, it may be understood that the Taq polymerase removed from solution not only the 3′-OH nucleotides that were generated using heating, but also at least some of the 3′-OH nucleotides that were present even without heating. Under the particular experimental conditions in this example, the Taq polymerase appeared to provide better performance than Deep Vent, and neither Deep Vent or Taq appeared to detrimentally influence phasing.

## 5′-NNNNNNNNNNNNNNNNNNNNCGGCCATATAACTGGTAGCTT-3′ [20N template]
3′-OH nucleotides [1]; 50 nM template
  R1 C150 phasing weight: about 12%
  R1 C150 prephasing weight: about 24%
3′-OH nucleotides [1]; 200 nM template
  R1 C150 phasing weight: about 18.5%
  R1 C150 prephasing weight: about 16.5%
3′-OH nucleotides [1]; 300 nM template
  R1 C150 phasing weight: about 19%
  R1 C150 prephasing weight: about 13%
3′-OH nucleotides [1]; 500 nM template
  R1 C150 phasing weight: about 23%
  R1 C150 prephasing weight: about 17%

## 5′-NNNNNNCGGCCATATAACTGGTAGCTT-3′ (degenerate-base DNA template, chemistry not given here) [6N template]
3′-OH nucleotides [1]; 200 nM template
  R1 C150 phasing weight: about 15%
  R1 C150 prephasing weight: about 17.5%

## 5′-NNN NCGGC CAT ATA ACT GGT AGCTT-3′ (DNA NNNNCGGCCATATAACTGGTAGCTT; degenerate-base DNA template for purifying nucleotides, chemistry not given here) [4N template]
3′-OH nucleotides [1]; 200 nM template
  R1 C150 phasing weight: about 18.5%
  R1 C150 prephasing weight: about 21%

## Taq polymerase: Thermus aquaticus DNA polymerase I, thermostable polishing polymerase
3′-OH nucleotides [2]; purified at 53° C.
  normalized prephasing: significantly lower than the control
3′-OH nucleotides [2]; purified at 60° C.
  normalized prephasing: significantly lower than the control
3′-OH nucleotides [3]; purified at 37° C.
  normalized phasing: about 0.13%
  normalized prephasing: about 0.09%
3′-OH nucleotides [3]; purified at 45° C.
  normalized phasing: about 0.12%
  normalized prephasing: about 0.08%
3′-OH nucleotides [3]; purified at 60° C.
  normalized phasing: about 0.12%
  normalized prephasing: about 0.09%

B1: NNNNNNNNNNNNNNNNNNNN CGGCCATATAACTGGTAGCTTTTTTAAGCTACC AGTT AT ATG GCC G (nucleic acid)
DNA: NNNNNNNNNNNNNNNNNNNNCGGCCATATAACTGGTAGCTTTTTTAAGCTACCAGTTATATGGCCG
modifications: hairpin template with 20 degenerate bases, chemistry not given here
3′-OH nucleotides [1]; 200 nM template
  R1 C150 phasing weight: about 12%
  R1 C150 prephasing weight: about 16%
